According to the supplement of paper PMC10132981, “Formate overflow drives toxic folate trapping in MTHFD1 inhibited cancer cells” (Nature Metabolism, 2023):
± gives the standard deviation of the averaged measurements.

System: SW620 MTHFD2-/-
Assay: cell viability relative to vehicle (resazurin, 96 h); higher = more viable
Details: base medium: RPMI + dialysed FBS
Experimental: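 SW620 WT or MTHFD2-/- cells were treated for 96 h with a compound dilution series (log10 M) in RPMI with normal or dialysed FBS. Viability was read by resazurin and is given as % of vehicle.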

Cc1c(N2CCN(C)[C@@H](C)C2)ccc2c3c(c(=O)oc12)CN(C(=O)c1ccc(NS(C)(=O)=O)c(OC(F)(F)F)c1)CC3
Details	cell viability [%]
log10 compound concentration (M): -5, supplement / serum: 50μM Hypoxanthine	95.4 ± 16
log10 compound concentration (M): -5, supplement / serum: 50μM Thymidine + 50μM Hypoxanthine	108 ± 27
log10 compound concentration (M): -5, supplement / serum: 50μMThymidine	13.3 ± 4.3
log10 compound concentration (M): -5, supplement / serum: Hypoxanthine	85.7 ± 11
log10 compound concentration (M): -5, supplement / serum: Hypoxanthine+Sodium Formate	51.9 ± 11
log10 compound concentration (M): -5, supplement / serum: No metabolite	15.4 ± 8.4
log10 compound concentration (M): -5, supplement / serum: Sodium Formate	87.3 ± 23
log10 compound concentration (M): -5, supplement / serum: Vehicle	11.5 ± 3.2
log10 compound concentration (M): -5.47712, supplement / serum: 50μM Hypoxanthine	77.9 ± 12
log10 compound concentration (M): -5.47712, supplement / serum: 50μM Thymidine + 50μM Hypoxanthine	98 ± 15
log10 compound concentration (M): -5.47712, supplement / serum: 50μMThymidine	14.1 ± 2.8
log10 compound concentration (M): -5.47712, supplement / serum: Hypoxanthine	94.2 ± 12
log10 compound concentration (M): -5.47712, supplement / serum: Hypoxanthine+Sodium Formate	90.1 ± 16
log10 compound concentration (M): -5.47712, supplement / serum: No metabolite	14.8 ± 3.6
log10 compound concentration (M): -5.47712, supplement / serum: Sodium Formate	95.7 ± 17
log10 compound concentration (M): -5.47712, supplement / serum: Vehicle	13.5 ± 1.9
log10 compound concentration (M): -5.95424, supplement / serum: 50μM Hypoxanthine	99.7 ± 30
log10 compound concentration (M): -5.95424, supplement / serum: 50μM Thymidine + 50μM Hypoxanthine	111 ± 24
log10 compound concentration (M): -5.95424, supplement / serum: 50μMThymidine	20.9 ± 2.7
log10 compound concentration (M): -5.95424, supplement / serum: Hypoxanthine	101 ± 8.7
log10 compound concentration (M): -5.95424, supplement / serum: Hypoxanthine+Sodium Formate	99 ± 7.3
log10 compound concentration (M): -5.95424, supplement / serum: No metabolite	20.5 ± 6
log10 compound concentration (M): -5.95424, supplement / serum: Sodium Formate	97.1 ± 5.7
log10 compound concentration (M): -5.95424, supplement / serum: Vehicle	20.3 ± 1.7
log10 compound concentration (M): -6.43136, supplement / serum: 50μM Hypoxanthine	109 ± 6
log10 compound concentration (M): -6.43136, supplement / serum: 50μM Thymidine + 50μM Hypoxanthine	114 ± 1.9
log10 compound concentration (M): -6.43136, supplement / serum: 50μMThymidine	41.5 ± 7.3
log10 compound concentration (M): -6.43136, supplement / serum: Hypoxanthine	98 ± 9
log10 compound concentration (M): -6.43136, supplement / serum: Hypoxanthine+Sodium Formate	104 ± 4.9
log10 compound concentration (M): -6.43136, supplement / serum: No metabolite	43.5 ± 14
log10 compound concentration (M): -6.43136, supplement / serum: Sodium Formate	98.9 ± 6.7
log10 compound concentration (M): -6.43136, supplement / serum: Vehicle	44.8 ± 4.5
log10 compound concentration (M): -6.90849, supplement / serum: 50μM Hypoxanthine	99.4 ± 32
log10 compound concentration (M): -6.90849, supplement / serum: 50μM Thymidine + 50μM Hypoxanthine	101 ± 31
log10 compound concentration (M): -6.90849, supplement / serum: 50μMThymidine	59.6 ± 11
log10 compound concentration (M): -6.90849, supplement / serum: Hypoxanthine	99.5 ± 3.1
log10 compound concentration (M): -6.90849, supplement / serum: Hypoxanthine+Sodium Formate	98.9 ± 4.2
log10 compound concentration (M): -6.90849, supplement / serum: No metabolite	56.7 ± 2.8
log10 compound concentration (M): -6.90849, supplement / serum: Sodium Formate	100 ± 5.1
log10 compound concentration (M): -6.90849, supplement / serum: Vehicle	74.4 ± 7.1
log10 compound concentration (M): -7.38561, supplement / serum: 50μM Hypoxanthine	67.2 ± 11
log10 compound concentration (M): -7.38561, supplement / serum: 50μM Thymidine + 50μM Hypoxanthine	110 ± 7.3
log10 compound concentration (M): -7.38561, supplement / serum: 50μMThymidine	61.2 ± 15
log10 compound concentration (M): -7.38561, supplement / serum: Hypoxanthine	85.2 ± 7.3
log10 compound concentration (M): -7.38561, supplement / serum: Hypoxanthine+Sodium Formate	83 ± 8.4
log10 compound concentration (M): -7.38561, supplement / serum: No metabolite	50 ± 3.7
log10 compound concentration (M): -7.38561, supplement / serum: Sodium Formate	76.9 ± 5.5
log10 compound concentration (M): -7.38561, supplement / serum: Vehicle	56.4 ± 5
log10 compound concentration (M): -7.86273, supplement / serum: 50μM Hypoxanthine	104 ± 5.7
log10 compound concentration (M): -7.86273, supplement / serum: 50μM Thymidine + 50μM Hypoxanthine	105 ± 5.2
log10 compound concentration (M): -7.86273, supplement / serum: 50μMThymidine	67.2 ± 0.81
log10 compound concentration (M): -7.86273, supplement / serum: Hypoxanthine	88.9 ± 8.2
log10 compound concentration (M): -7.86273, supplement / serum: Hypoxanthine+Sodium Formate	94.5 ± 7.3
log10 compound concentration (M): -7.86273, supplement / serum: No metabolite	72.2 ± 5.5
log10 compound concentration (M): -7.86273, supplement / serum: Sodium Formate	94.4 ± 6.8
log10 compound concentration (M): -7.86273, supplement / serum: Vehicle	80.2 ± 7.6
log10 compound concentration (M): -8.33985, supplement / serum: 50μM Hypoxanthine	104 ± 3.1
log10 compound concentration (M): -8.33985, supplement / serum: 50μM Thymidine + 50μM Hypoxanthine	95 ± 9
log10 compound concentration (M): -8.33985, supplement / serum: 50μMThymidine	77.3 ± 1.7
log10 compound concentration (M): -8.33985, supplement / serum: Hypoxanthine	93.9 ± 12
log10 compound concentration (M): -8.33985, supplement / serum: Hypoxanthine+Sodium Formate	101 ± 9.1
log10 compound concentration (M): -8.33985, supplement / serum: No metabolite	90 ± 3.7
log10 compound concentration (M): -8.33985, supplement / serum: Sodium Formate	92.2 ± 12
log10 compound concentration (M): -8.33985, supplement / serum: Vehicle	92.8 ± 7.2
log10 compound concentration (M): -8.81697, supplement / serum: 50μM Hypoxanthine	114 ± 8.4
log10 compound concentration (M): -8.81697, supplement / serum: 50μM Thymidine + 50μM Hypoxanthine	113 ± 10
log10 compound concentration (M): -8.81697, supplement / serum: 50μMThymidine	94 ± 18
log10 compound concentration (M): -8.81697, supplement / serum: Hypoxanthine	94.5 ± 3.4
log10 compound concentration (M): -8.81697, supplement / serum: Hypoxanthine+Sodium Formate	95.1 ± 4.2
log10 compound concentration (M): -8.81697, supplement / serum: No metabolite	96.4 ± 18
log10 compound concentration (M): -8.81697, supplement / serum: Sodium Formate	95.3 ± 5.8
log10 compound concentration (M): -8.81697, supplement / serum: Vehicle	94.3 ± 2
log10 compound concentration (M): -9.29409, supplement / serum: 50μM Hypoxanthine	96.5 ± 1.1
log10 compound concentration (M): -9.29409, supplement / serum: 50μM Thymidine + 50μM Hypoxanthine	113 ± 10
log10 compound concentration (M): -9.29409, supplement / serum: 50μMThymidine	95.6 ± 29
log10 compound concentration (M): -9.29409, supplement / serum: Hypoxanthine	95.9 ± 4
log10 compound concentration (M): -9.29409, supplement / serum: Hypoxanthine+Sodium Formate	94.7 ± 2.4
log10 compound concentration (M): -9.29409, supplement / serum: No metabolite	104 ± 17
log10 compound concentration (M): -9.29409, supplement / serum: Sodium Formate	98.8 ± 6.8
log10 compound concentration (M): -9.29409, supplement / serum: Vehicle	97 ± 5.5
log10 compound concentration (M): -9.77121, supplement / serum: 50μM Hypoxanthine	106 ± 7.2
log10 compound concentration (M): -9.77121, supplement / serum: 50μM Thymidine + 50μM Hypoxanthine	124 ± 1.8
log10 compound concentration (M): -9.77121, supplement / serum: 50μMThymidine	92.7 ± 1.6
log10 compound concentration (M): -9.77121, supplement / serum: Hypoxanthine	95 ± 4.8
log10 compound concentration (M): -9.77121, supplement / serum: Hypoxanthine+Sodium Formate	98.8 ± 3
log10 compound concentration (M): -9.77121, supplement / serum: No metabolite	110 ± 13
log10 compound concentration (M): -9.77121, supplement / serum: Sodium Formate	99.3 ± 3.4
log10 compound concentration (M): -9.77121, supplement / serum: Vehicle	96.2 ± 6

Cc1[nH]nc2c1C(c1cc(CO)cc(-c3ccccc3)c1)(C(C)C)C(C#N)=C(N)O2 (configuration not stated) [SHIN1]
Details	cell viability [%]
log10 compound concentration (M): -5, supplement / serum: Hypoxanthine	88.2 ± 9
log10 compound concentration (M): -5, supplement / serum: Hypoxanthine+Sodium Formate	91.8 ± 12
log10 compound concentration (M): -5, supplement / serum: Sodium Formate	83.5 ± 11
log10 compound concentration (M): -5, supplement / serum: Vehicle	12.1 ± 2.5
log10 compound concentration (M): -5.47712, supplement / serum: Hypoxanthine	102 ± 8.9
log10 compound concentration (M): -5.47712, supplement / serum: Hypoxanthine+Sodium Formate	109 ± 5.6
log10 compound concentration (M): -5.47712, supplement / serum: Sodium Formate	104 ± 7
log10 compound concentration (M): -5.47712, supplement / serum: Vehicle	13.6 ± 1
log10 compound concentration (M): -5.95424, supplement / serum: Hypoxanthine	105 ± 8.2
log10 compound concentration (M): -5.95424, supplement / serum: Hypoxanthine+Sodium Formate	107 ± 6.6
log10 compound concentration (M): -5.95424, supplement / serum: Sodium Formate	99.9 ± 4.8
log10 compound concentration (M): -5.95424, supplement / serum: Vehicle	13.9 ± 1.6
log10 compound concentration (M): -6.43136, supplement / serum: Hypoxanthine	103 ± 1.6
log10 compound concentration (M): -6.43136, supplement / serum: Hypoxanthine+Sodium Formate	109 ± 4
log10 compound concentration (M): -6.43136, supplement / serum: Sodium Formate	102 ± 4.2
log10 compound concentration (M): -6.43136, supplement / serum: Vehicle	14.8 ± 1.4
log10 compound concentration (M): -6.90849, supplement / serum: Hypoxanthine	101 ± 5.4
log10 compound concentration (M): -6.90849, supplement / serum: Hypoxanthine+Sodium Formate	104 ± 4.4
log10 compound concentration (M): -6.90849, supplement / serum: Sodium Formate	108 ± 3.8
log10 compound concentration (M): -6.90849, supplement / serum: Vehicle	16.4 ± 1.8
log10 compound concentration (M): -7.38561, supplement / serum: Hypoxanthine	88.3 ± 9.3
log10 compound concentration (M): -7.38561, supplement / serum: Hypoxanthine+Sodium Formate	86.8 ± 6.8
log10 compound concentration (M): -7.38561, supplement / serum: Sodium Formate	85.4 ± 4.3
log10 compound concentration (M): -7.38561, supplement / serum: Vehicle	14 ± 0.95
log10 compound concentration (M): -7.86273, supplement / serum: Hypoxanthine	92.2 ± 10
log10 compound concentration (M): -7.86273, supplement / serum: Hypoxanthine+Sodium Formate	99.9 ± 8.4
log10 compound concentration (M): -7.86273, supplement / serum: Sodium Formate	90.9 ± 5.5
log10 compound concentration (M): -7.86273, supplement / serum: Vehicle	27.1 ± 3
log10 compound concentration (M): -8.33985, supplement / serum: Hypoxanthine	101 ± 5.1
log10 compound concentration (M): -8.33985, supplement / serum: Hypoxanthine+Sodium Formate	102 ± 2.4
log10 compound concentration (M): -8.33985, supplement / serum: Sodium Formate	99.8 ± 4.9
log10 compound concentration (M): -8.33985, supplement / serum: Vehicle	47.3 ± 3.7
log10 compound concentration (M): -8.81697, supplement / serum: Hypoxanthine	101 ± 8
log10 compound concentration (M): -8.81697, supplement / serum: Hypoxanthine+Sodium Formate	103 ± 7.2
log10 compound concentration (M): -8.81697, supplement / serum: Sodium Formate	99 ± 6.2
log10 compound concentration (M): -8.81697, supplement / serum: Vehicle	65.1 ± 3.5
log10 compound concentration (M): -9.29409, supplement / serum: Hypoxanthine	96.8 ± 6
log10 compound concentration (M): -9.29409, supplement / serum: Hypoxanthine+Sodium Formate	99.9 ± 2.3
log10 compound concentration (M): -9.29409, supplement / serum: Sodium Formate	97.1 ± 4.1
log10 compound concentration (M): -9.29409, supplement / serum: Vehicle	85.7 ± 3.4
log10 compound concentration (M): -9.77121, supplement / serum: Hypoxanthine	102 ± 6
log10 compound concentration (M): -9.77121, supplement / serum: Hypoxanthine+Sodium Formate	105 ± 8
log10 compound concentration (M): -9.77121, supplement / serum: Sodium Formate	98.8 ± 5.4
log10 compound concentration (M): -9.77121, supplement / serum: Vehicle	92.1 ± 5.2
